Among the test systems are SF-268; UO-31; U-251; HOP-92; RPMI-8226; SK-MEL-2; A549; SK-OV-3; A498; 786-0; HCT-15; SN12C; OVCAR-8; SNB-75; TK-10; HCC 2998; SR.
Test in all cases: NCI-60 cell line screen, 48 h

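Where inhibition never reached the appropriate level, the endpoint shown equals the highest concentration tested. Otherwise, values were interpolated linearly from a five-concentration, 48-hour dose response in 96-well plates. GI50 marks 50% less growth.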 Calls of active or inactive are those of the source. Cut-off read from the data, not from the text of the source: active = GI50 up to about 1.1 µM and inactive = higher.

Take `O=C(Nc1ccc(Cl)cc1Cl)C(=O)C(C(=O)c1ccc2ccccc2c1)C1OC(=O)c2ccccc21` (stereo not given): the GI50 with SF-268 was > 10 µM (inactive); in the assay on UO-31, 11.4 µM (inactive); in the assay on U-251 it was 2.51 µM (inactive); with HOP-92 it was 3.3 µM (inactive); in the assay on RPMI-8226, 4.06 µM (inactive); in the assay with SK-MEL-2, 13.7 µM (inactive). For the same compound, the GI50 is 8.32 µM (inactive) in the assay with A549; 26.8 µM (inactive) in the assay with SK-OV-3; 6.7 µM (inactive) with A498; 5.97 µM (inactive) in the assay with 786-0; 11.5 µM in the assay with HCT-15; 11.7 µM (inactive) in the assay with SN12C. The GI50 in the assay on OVCAR-8 is 6.34 µM (inactive).

For the compound `COc1cc2c(cc1OC)C(C(=O)O)C(c1ccccc1)N(C)C2=O` (stereo not given), the GI50 in the assay on SNB-75, with SF-268, in the assay on UO-31, in the assay on U-251, in the assay with RPMI-8226 and in the assay with SK-MEL-2 was > 100 µM (inactive) in each case. The GI50 in the assay on A549, with SK-OV-3, in the assay on A498, in the assay with 786-0, with TK-10 and in the assay with SN12C was > 100 µM (inactive) in each case. The GI50 in the assay on OVCAR-8 and in the assay with HCC 2998 was > 100 µM (inactive) throughout.

`Cc1cccc(NC(=O)CC#N)c1Cl`: the GI50 in the assay on SNB-75 was > 100 µM (inactive); in the assay with SF-268 it was > 100 µM (inactive); in the assay on UO-31, 99.3 µM (inactive); in the assay with U-251 it was > 100 µM (inactive); in the assay with HOP-92, > 100 µM (inactive); in the assay with RPMI-8226 it was > 100 µM (inactive). Moreover, the GI50 in the assay on SK-MEL-2 was > 100 µM (inactive); in the assay with SR, > 100 µM (inactive); with A549, > 100 µM (inactive); with SK-OV-3, > 100 µM (inactive); in the assay with 786-0 it was > 100 µM (inactive); in the assay with HCT-15 it was above 100 µM. Also, the GI50 in the assay with TK-10 and with SN12C was > 100 µM (inactive) in each case.

Consider `COc1ccc(S(=O)(=O)N/N=C\c2cc([N+](=O)[O-])cc(I)c2O)c(OC)c1OC`, for which the GI50 is 24.7 µM (inactive) in the assay on SNB-75; 26.5 µM (inactive) with SF-268; 18.5 µM (inactive) with UO-31; 25.3 µM (inactive) in the assay on U-251; 13.5 µM (inactive) in the assay on HOP-92; 26.5 µM (inactive) with RPMI-8226. For the same compound, the GI50 in the assay on SK-MEL-2 is 21.4 µM (inactive); in the assay on A549, 59 µM (inactive); in the assay on SK-OV-3, 25 µM (inactive); in the assay with A498 it was 29.8 µM (inactive); in the assay on 786-0 it was 24.7 µM (inactive); with HCT-15, 22.3 µM. The GI50 with TK-10 is 40.4 µM (inactive); in the assay on SN12C, 31.5 µM (inactive); in the assay with OVCAR-8, 34.4 µM (inactive); in the assay with HCC 2998, 31.4 µM (inactive).

For the compound `COc1cc([C@@H]2OC(=O)C3C2C(=O)O[C@H]3c2cc(OC)c(OC)c(OC)c2)cc(OC)c1OC` (stereo not given in full), the GI50 in the assay on SNB-75, with SF-268, with UO-31, with U-251, in the assay with HOP-92 and in the assay with RPMI-8226 was > 100 µM (inactive) throughout. The GI50 in the assay on SK-MEL-2 was > 100 µM (inactive); in the assay on A549 it was > 100 µM (inactive); with SK-OV-3, > 100 µM (inactive); with A498, > 100 µM (inactive); in the assay on 786-0, > 100 µM (inactive); in the assay with HCT-15, above 100 µM. Further, the GI50 with TK-10, in the assay with SN12C, in the assay on OVCAR-8 and with HCC 2998 was > 100 µM (inactive) each time.

On to `Cc1ccc(S(=O)(=O)CC(=O)CC(=O)C(=O)Nc2cccc(C(F)(F)F)c2)cc1`, for which the GI50 was 47.6 µM (inactive) in the assay with SNB-75; > 100 µM (inactive) with SF-268; > 100 µM (inactive) in the assay on UO-31; > 100 µM (inactive) in the assay with U-251; > 100 µM (inactive) in the assay on HOP-92; > 100 µM (inactive) in the assay with RPMI-8226. Besides, the GI50 with SK-MEL-2 is > 100 µM (inactive); in the assay with SR, > 100 µM (inactive); with A549, > 100 µM (inactive); in the assay with SK-OV-3 it was > 100 µM (inactive); in the assay with 786-0, > 100 µM (inactive); in the assay with HCT-15, above 100 µM. Also, the GI50 in the assay on TK-10 and in the assay on SN12C was > 100 µM (inactive) throughout.

`Cc1c(/C=N/NC(=O)c2ccc(Cl)cc2)c(=O)n(-c2ccccc2)n1C`: the GI50 was > 100 µM (inactive) with SNB-75; > 100 µM (inactive) with SF-268; 95.5 µM (inactive) with UO-31; > 100 µM (inactive) in the assay with U-251; > 100 µM (inactive) in the assay on HOP-92; > 100 µM (inactive) in the assay on RPMI-8226. For the same compound, the GI50 in the assay on SK-MEL-2 was > 100 µM (inactive); in the assay on SR it was > 100 µM (inactive); in the assay on A549, > 100 µM (inactive); in the assay on SK-OV-3, > 100 µM (inactive); in the assay with 786-0, > 100 µM (inactive); in the assay with HCT-15, above 100 µM. The GI50 with TK-10, in the assay on SN12C, with OVCAR-8 and in the assay with HCC 2998 was > 100 µM (inactive) throughout.

`CC(CN(C)C)/C(=N\Nc1ccccc1)c1ccccc1` (stereo not given): the GI50 was 13 µM (inactive) with SNB-75; 0.22 µM (active) in the assay with SF-268; 1.13 µM (inactive) in the assay with UO-31; 1.07 µM (active) with U-251; 0.366 µM (active) in the assay with RPMI-8226; 0.33 µM (active) with SR. Further, the GI50 in the assay with A549 is 0.44 µM (active); with SK-OV-3, 15.6 µM (inactive); in the assay with A498, 29.2 µM (inactive); in the assay on 786-0 it was 0.499 µM (active); with HCT-15, 0.0955 µM; with TK-10 it was 1.02 µM (active). Also, the GI50 in the assay with SN12C is 3.19 µM (inactive); with OVCAR-8, 12.7 µM (inactive).

For `Cc1ccc([N+]2=NC(c3ccc([N+](=O)[O-])cc3)=NN(c3ccccc3)C2)cc1`, the GI50 with SF-268 was > 100 µM (inactive); with UO-31, 86.7 µM (inactive); with U-251 it was 72.8 µM (inactive); in the assay with RPMI-8226 it was 57.4 µM (inactive); in the assay with SR, 46.7 µM (inactive); in the assay with A549 it was > 100 µM (inactive). The GI50 in the assay with A498 is 95.9 µM (inactive); in the assay with 786-0 it was > 100 µM (inactive); in the assay on HCT-15, 38.6 µM; in the assay on TK-10 it was > 100 µM (inactive); in the assay on SN12C it was > 100 µM (inactive); in the assay with OVCAR-8 it was 42.1 µM (inactive). The GI50 in the assay on HCC 2998 is > 100 µM (inactive).

As for `Cc1cc(C)nc(NS(=O)(=O)c2ccc(NC(=O)c3cccc4c(N)c5ccccc5nc34)cc2)n1`, the GI50 with SNB-75 is > 100 µM (inactive); with SF-268 it was > 100 µM (inactive); in the assay on UO-31, > 100 µM (inactive); in the assay on U-251 it was 97.5 µM (inactive); in the assay with RPMI-8226, 34.2 µM (inactive); with SK-MEL-2, > 100 µM (inactive). Besides, the GI50 in the assay on A549 was > 100 µM (inactive); with SK-OV-3, > 100 µM (inactive); in the assay with A498, > 100 µM (inactive); in the assay on 786-0 it was > 100 µM (inactive); in the assay with HCT-15 it was above 100 µM; in the assay with TK-10 it was > 100 µM (inactive). Also, the GI50 in the assay with SN12C was > 100 µM (inactive); with OVCAR-8, 65.8 µM (inactive); with HCC 2998, 67.1 µM (inactive).

Regarding `Cn1cccc(C(=O)c2ccccc2)c1=O`, the GI50 in the assay on SNB-75, in the assay with SF-268, with UO-31, in the assay on U-251, in the assay on HOP-92 and in the assay on RPMI-8226 was > 100 µM (inactive) in each case. Also, the GI50 in the assay on SK-MEL-2 was > 100 µM (inactive); in the assay on SR, > 100 µM (inactive); in the assay on A549, > 100 µM (inactive); in the assay on SK-OV-3, > 100 µM (inactive); with 786-0, > 100 µM (inactive); in the assay with HCT-15, above 100 µM. The GI50 in the assay on TK-10, with SN12C, in the assay on OVCAR-8 and in the assay with HCC 2998 was > 100 µM (inactive) each time.

`CCOC1(COP(=O)(OCc2ccccc2)OCc2ccccc2)COC(COP(=O)(OCc2ccccc2)OCc2ccccc2)(OCC)CO1` (stereo not given): the GI50 in the assay with SF-268 is > 100 µM (inactive); with U-251 it was > 100 µM (inactive); in the assay with HOP-92 it was 2.99 µM (inactive); with RPMI-8226, 74.6 µM (inactive); in the assay on SK-MEL-2, > 100 µM (inactive); in the assay on SR, > 100 µM (inactive). Moreover, the GI50 with A549 was 9.02 µM (inactive); in the assay on SK-OV-3 it was > 100 µM (inactive); with 786-0, > 100 µM (inactive); in the assay on HCT-15, above 100 µM; in the assay on TK-10 it was > 100 µM (inactive); with SN12C, > 100 µM (inactive). The GI50 was 59 µM (inactive) in the assay with OVCAR-8 and > 100 µM (inactive) in the assay on HCC 2998.

For `CC1=C(C(=O)Nc2ccccc2C)C(c2ccc([N+](=O)[O-])cc2)C(C(=O)Nc2ccccc2C)=C(C)N1`, the GI50 in the assay on SNB-75 is 22.8 µM (inactive); in the assay on SF-268, 39.1 µM (inactive); with UO-31, 20.5 µM (inactive); with U-251 it was > 100 µM (inactive); in the assay on RPMI-8226 it was 28.6 µM (inactive); in the assay with SK-MEL-2, 38.2 µM (inactive). Besides, the GI50 with A549 is 22.5 µM (inactive); with SK-OV-3 it was > 100 µM (inactive); in the assay with A498, 14 µM (inactive); in the assay with 786-0, 53.3 µM (inactive); with HCT-15, 56.5 µM; with TK-10 it was 46.1 µM (inactive). Besides, the GI50 was 76.7 µM (inactive) in the assay with SN12C, > 100 µM (inactive) in the assay on OVCAR-8 and 47.3 µM (inactive) in the assay with HCC 2998.

(Values after ChEMBL document CHEMBL1201862, “PubChem BioAssay data set” (2004).)
